Here are results for 25 molecules from patent publication US5691148A, “Petroleum immunoassay method, its components and a kit for use in performing the same” (ENSYS, Inc., priority 1994, dated 1997).

Read-outs that look alike come from different tables or passages of the source.

Assay [1] deals with monoclonal F12-3C8 antibody (anti-petroleum). The assay can be described thus: Cross-reactivity of immunoassay relative to m-xylene. Conditions: for ED50: calculated from a dose response curve. It is filed as binding, mouse (Balb/c). How it is done:
(§1) Female Balb/c mice received a primary subcutaneous immunization with 50 ug of xylene derivatized to bovine serum albumin in adjuvant (MPL+TDM Emulsion, RIBI Immunochem Research, Inc., Hamilton, Mont.). Subcutaneous secondary injections (25 ug) were given at day 21, 35, and then monthly. The production of monoclonal antibodies was performed according to conventional procedures (see Milstein, Cancer, 49:1953-1957 (1982)). Hybridoma cultures producing monoclonal antibodies recognizing free hapten by EIA were cloned by limiting dilution.
(§2) Antibody coated tubes were prepared by passively coating polystyrene (12×75 mm, NUNC) tubes with the monoclonal F12-3C8 antibody diluted in PBS and incubating overnight.
(§3) 10 g of a soil sample were placed in an extraction vial containing 20 mL of methanol and 5 steel pellets (6 mm) and the vial and its contents shaken for 1 minute to disperse the soil particles and extract the petroleum hydrocarbons. The sample was then filtered to clarify the sample using a filter of glass fiber and 0.45μTeflon. 45 uL of the clarified filtrate sample was mixed with 955 μl of 10 mM PBS (pH=7.4) and the resulting mixture added to lyophilized enzyme conjugate reagent (0.3 μg) and mixed. At the same time, 2×45 uL of the xylene standard are similarly treated. The sample and the two standards were then poured into three identical antibody coated tubes, respectively, and the resulting solution mixed. The resulting solution was incubated for 10 minutes at ambient temperature and then washed 4× with a wash buffer (detergent-saline solution). 250 uL of tetramethylbenzidene solution (KP Laboratories, Cat. No. 50-76-02) was added along with 250 uL of hydrogen peroxide solution (KPL, Cat. No. 50-65-02) and the resultant solution mixed. After incubating for 2.5 minutes the color development reaction was stopped with 250 uL of stop solution (1M sulfuric acid).
The ED50 value was calculated from a dose response curve.
Percent CrossReactivity = ((mXylene ED50 /Compound ED50) .times

The test system is the same in assay [2]. The assay can be described thus: Cross-reactivity of immunoassay: concentration needed to provide a positive result. It is filed as binding, mouse (Balb/c). Conditions: test compounds dissolved in methanol. How it is done:
as §1, with “dilution. Clone F12-3C8 was selected based upon specificity, and interference criteria.” for “dilution.”
as §2, §3
Cross-reactivity of the immunoassay of the present
invention. The test compounds were dissolved in
methanol and assayed. The values listed are the
concentration of compound needed to provide a […]

Where [3] appears, read: (m-Xylene ED50 / Compound ED50) x 100, m-xylene = 100%.

For the molecule `CC(C)CC(C)(C)C` [2,2,4-Trimethylpentane], the “% Cross-Reactivity” value in assay [1] (setting [3]) is reported as less than 1%. Besides, in assay [1], the ED50 entry is given as “Negative”.
In the case of `CCCCC(C)C` [2-Methylhexane], in assay [1] (setting [3]), the “% Cross-Reactivity” value turned out to be 43%. In assay [1] (10 min), the ED50 is on record as 1,113 ppb.
In the case of `CCCC(C)C` [2-Methylpentane], the “% Cross-Reactivity” value in assay [1] (setting [3]) worked out at 57%. In addition, the ED50 in assay [1] (10 min) was 851 ppb.
With `c1cc2c3c(cccc3c1)CC2` [Acenaphthene], in assay [1] (setting [3]), the “% Cross-Reactivity” value is recorded as 5,378%. Besides, the ED50 in assay [1] (10 min) was 9 ppb. Moreover, the Conc. where positive in assay [2] is listed as 2.5 ppm.
In the case of `c1ccccc1` [Benzene], the “% Cross-Reactivity” value in assay [1] was less than 1%. Also, the Conc. where positive in assay [2] is > 10,000 ppm.
Turning to `C1CCCCC1` [Cyclohexane], the “% Cross-Reactivity” value in assay [1] (setting [3]) was determined as 7%. The ED50 in assay [1] (10 min) is on record as 6,636 ppb.
Regarding `CCc1ccccc1` [Ethylbenzene], the “% Cross-Reactivity” value in assay [1] was determined as 275%. In assay [1] (10 min), the ED50 is 176 ppb.
The molecule `CCCCCCC` [Heptane] came in with a Conc. where positive in assay [2] of 300 ppm.
In the case of `CCCCCC` [Hexane], the Conc. where positive in assay [2] turned out to be 300 ppm.
On the same count and under the same terms, then `CC(C)CC(C)(C)C` [Isooctane], with 100 ppm.
Turning to `c1ccc2ccccc2c1` [Naphthalene], the “% Cross-Reactivity” value in assay [1] (setting [3]) is listed as 4,390%. Also, in assay [1] (10 min), the ED50 is recorded as 11 ppb. In assay [2], the Conc. where positive turned out to be 2.5 ppm.
As to `c1ccc2c(c1)ccc1ccccc12` [Phenanthrene], in assay [1] (setting [3]), the “% Cross-Reactivity” value worked out at 848%. Further, the ED50 in assay [1] (10 min) was 57 ppb. Besides, in assay [2], the Conc. where positive was 10 ppm.
As to `Cc1ccccc1` [Toluene], the “% Cross-Reactivity” value in assay [1] (setting [3]) was 22%. In addition, the ED50 in assay [1] (10 min) is 2,210 ppb. Besides, the Conc. where positive in assay [2] was 300 ppm.
For `CCCCCCCCCCC` [Undecane], in assay [2], the Conc. where positive is > 10,000 ppm.
Regarding `Cc1cccc(C)c1` [m-Xylene, reference compound], in assay [1] (setting [3]), the “% Cross-Reactivity” value amounted to 100%. Also, in assay [1] (10 min), the ED50 was 483 ppb.
Take `CCCCCCC` [n-Heptane]: the “% Cross-Reactivity” value in assay [1] (setting [3]) was found to be 30%. Moreover, the ED50 in assay [1] (10 min) is 1,669 ppb.
For the molecule `CCCCCCCCC` [n-Nonane], in assay [1] (setting [3]), the “% Cross-Reactivity” value is listed as less than 1%. Further, the ED50 entry in assay [1] is listed as “Negative”.
As to `CCCCCCCC` [n-Octane], the “% Cross-Reactivity” value in assay [1] (setting [3]) stood at 11%. Further, the ED50 in assay [1] (10 min) is given as 4,589 ppb.
In the case of `CCCCCCCCCCCCCC` [n-Tetradecane], the “% Cross-Reactivity” value in assay [1] (setting [3]) is on record as less than 1%. The ED50 entry in assay [1] was “Negative”.
With `CCCCCCCCCCCCC` [n-Tridecane], in assay [1] (setting [3]), the “% Cross-Reactivity” value is recorded as less than 1%. The ED50 result in assay [1] is “Negative”.
On the same counts, the results for `CCCCCCCCCCC` [n-Undecane] are less than 1% and “Negative”.
As for `Cc1ccccc1C` [o-Xylene], the “% Cross-Reactivity” value in assay [1] (setting [3]) is recorded as 271%. In assay [1] (10 min), the ED50 is reported as 178 ppb.
On the same counts, the results for `Cc1ccc(C)cc1` [p-Xylene] are 38% and 1,255 ppb.
With Methylnaphthalene, the “% Cross-Reactivity” value in assay [1] (setting [3]) came out at 780%. For the same molecule, in assay [1] (10 min), the ED50 is given as 62 ppb. This molecule displayed a Conc. where positive in assay [2] of 10 ppm.
As for Xylene, in assay [2], the Conc. where positive is listed as 100 ppm.
